Legend:
[1] = In vitro serum stability study; format: in vitro ADME, human; conditions: for % Intact of [^89Zr]Zr-DOTMA (n = 3) Radio-ITLC / % Intact of [^89Zr]Zr-DOTMA (n = 3) Radio-SE-HPLC: human serum, 37 °C
Description: The in vitro serum stability was determined by adding 20 μL of [^89Zr]Zr-DOTMA (113–124 μCi, 4.2–4.6 MBq) to 500 μL of human serum. The solutions (n = 3) were incubated at 37 °C for 7 days and were analyzed daily for 1 week by radio-TLC using Varian ITLC-SA strips, 0.1 M EDTA (pH 5) as the mobile phase, and gamma counting. Samples were also analyzed at 1, 3, 5, and 7 days via size exclusion chromatography (SEC) using a Superdex 200 10/300 GL column (GE Healthcare Life Sciences, Piscataway, NJ, USA) and phosphate buffered saline (PBS) as an eluent with a flow rate of 0.5 mL/min. Fractions (0.5 mL per tube) were collected, and the activity in each fraction was measured in a gamma counter. The percent intact radiopharmaceutical was determined by […] in the chromatogram and multiplying by a factor of 100%.

[2] = Biodistribution studies in non-tumor-bearing, normal mice; format: in vivo, female NIH Swiss mice; conditions: for Biodistribution (%ID/g) Blood / Biodistribution (%ID/g) Bone / Biodistribution (%ID/g) Fat / Biodistribution (%ID/g) Heart / Biodistribution (%ID/g) Kidney / Biodistribution (%ID/g) Large intestine / Biodistribution (%ID/g) Liver / Biodistribution (%ID/g) Lung / Biodistribution (%ID/g) Muscle / Biodistribution (%ID/g) Pancreas / Biodistribution (%ID/g) Small intestine / Biodistribution (%ID/g) Spleen / Biodistribution (%ID/g) Stomach: tail vein, n = 6
Description: Female NIH Swiss mice (6–8 weeks old) were purchased from Inotiv, Lafayette, IN, USA. All animals were acclimated to a 12 h light/dark cycle and received food and water ad libitum for 5 days before any manipulations were performed. All animals were checked by veterinary staff daily to ensure well-being and proper environment and to monitor for signs of distress. Clinical signs of distress in laboratory rodents include decreased activity, pilo-erection, un-groomed appearance, excessive licking and scratching, self-mutilation, abnormal stance, hunched appearance, rapid or shallow respiration, grunting, dilated pupils, aggressiveness towards handler, high-pitched vocalizations, change in feeding activity, and attempts to separate from group. In the event of clinical distress, animals were euthanized after consulting the on-call veterinarian. To minimize suffering during the tail vain injection, animals were kept under deep isoflurane anesthesia. At the end point of the study, animals were anesthetized with isoflurane and were euthanized by cervical dislocation, which is consistent with the recommendations of the American Veterinary Medical Association Guidelines on Euthanasia.
Biodistribution studies were conducted using a modified literature procedure. Briefly, female NIH Swiss mice (6–8 weeks old, n = 6/cohort; 30 animals total) were injected with [^89Zr]Zr-DOTMA (0.55 MBq (15 μCi)/mouse) via the tail vein and sacrificed at 2, 4, 24, 48, and 72 h p.i. Organs and tissues of interest were excised, weighed, and counted on a gamma counter. The percent injected dose per gram (%ID/g) was calculated by comparison to a weighed, counted standard for each group.

CC(C(=O)[O-])N1CCN(C(C)C(=O)[O-])CCN(C(C)C(=O)[O-])CCN(C(C)C(=O)[O-])CC1.[89Zr+4] (stereo not shown) [[^89Zr]Zr-DOTMA]
% Intact of [^89Zr]Zr-DOTMA (n = 3) Radio-ITLC ([1]; 0 h): ≥99.99%
% Intact of [^89Zr]Zr-DOTMA (n = 3) Radio-SE-HPLC ([1]; 0 h): ≥99.99%
% Intact of [^89Zr]Zr-DOTMA (n = 3) Radio-ITLC ([1]; 1 d): ≥99.99%
% Intact of [^89Zr]Zr-DOTMA (n = 3) Radio-SE-HPLC ([1]; 1 d): ≥99.99%
% Intact of [^89Zr]Zr-DOTMA (n = 3) Radio-ITLC ([1]; 3 d): ≥99.99%
% Intact of [^89Zr]Zr-DOTMA (n = 3) Radio-SE-HPLC ([1]; 3 d): ≥99.99%
% Intact of [^89Zr]Zr-DOTMA (n = 3) Radio-ITLC ([1]; 5 d): ≥99.99%
% Intact of [^89Zr]Zr-DOTMA (n = 3) Radio-SE-HPLC ([1]; 5 d): ≥99.99%
% Intact of [^89Zr]Zr-DOTMA (n = 3) Radio-ITLC ([1]; 7 d): ≥99.99%
% Intact of [^89Zr]Zr-DOTMA (n = 3) Radio-SE-HPLC ([1]; 7 d): 99.9 ± 0.1%
association of ^89Zr with serum proteins (in words) ([1]; incubation in human serum, seven-day time course): not associated with the serum proteins
Biodistribution (%ID/g) Blood ([2]; 2 h p.i.): 0.011 ± 0.001 %ID/g
Biodistribution (%ID/g) Bone ([2]; 2 h p.i.): 0.032 ± 0.006 %ID/g
Biodistribution (%ID/g) Fat ([2]; 2 h p.i.): 0.007 ± 0.003 %ID/g
Biodistribution (%ID/g) Heart ([2]; 2 h p.i.): 0.021 ± 0.003 %ID/g
Biodistribution (%ID/g) Kidney ([2]; 2 h p.i.): 1.053 ± 0.071 %ID/g
Biodistribution (%ID/g) Large intestine ([2]; 2 h p.i.): 0.523 ± 0.112 %ID/g
Biodistribution (%ID/g) Liver ([2]; 2 h p.i.): 0.238 ± 0.020 %ID/g
Biodistribution (%ID/g) Lung ([2]; 2 h p.i.): 0.071 ± 0.006 %ID/g
Biodistribution (%ID/g) Muscle ([2]; 2 h p.i.): 0.008 ± 0.003 %ID/g
Biodistribution (%ID/g) Pancreas ([2]; 2 h p.i.): 0.011 ± 0.003 %ID/g
Biodistribution (%ID/g) Small intestine ([2]; 2 h p.i.): 0.229 ± 0.039 %ID/g
Biodistribution (%ID/g) Spleen ([2]; 2 h p.i.): 0.078 ± 0.008 %ID/g
Biodistribution (%ID/g) Stomach ([2]; 2 h p.i.): 0.069 ± 0.008 %ID/g
Biodistribution (%ID/g) Blood ([2]; 4 h p.i.): 0.008 ± 0.001 %ID/g
Biodistribution (%ID/g) Bone ([2]; 4 h p.i.): 0.024 ± 0.004 %ID/g
Biodistribution (%ID/g) Fat ([2]; 4 h p.i.): 0.006 ± 0.002 %ID/g
Biodistribution (%ID/g) Heart ([2]; 4 h p.i.): 0.019 ± 0.004 %ID/g
Biodistribution (%ID/g) Kidney ([2]; 4 h p.i.): 0.689 ± 0.086 %ID/g
Biodistribution (%ID/g) Large intestine ([2]; 4 h p.i.): 0.632 ± 0.088 %ID/g
Biodistribution (%ID/g) Liver ([2]; 4 h p.i.): 0.123 ± 0.017 %ID/g
Biodistribution (%ID/g) Lung ([2]; 4 h p.i.): 0.060 ± 0.005 %ID/g
Biodistribution (%ID/g) Muscle ([2]; 4 h p.i.): 0.004 ± 0.002 %ID/g
Biodistribution (%ID/g) Pancreas ([2]; 4 h p.i.): 0.010 ± 0.004 %ID/g
Biodistribution (%ID/g) Small intestine ([2]; 4 h p.i.): 0.080 ± 0.007 %ID/g
Biodistribution (%ID/g) Spleen ([2]; 4 h p.i.): 0.076 ± 0.004 %ID/g
Biodistribution (%ID/g) Stomach ([2]; 4 h p.i.): 0.013 ± 0.005 %ID/g
Biodistribution (%ID/g) Blood ([2]; 24 h p.i.): 0.005 ± 0.001 %ID/g
Biodistribution (%ID/g) Bone ([2]; 24 h p.i.): 0.026 ± 0.004 %ID/g
Biodistribution (%ID/g) Fat ([2]; 24 h p.i.): 0.005 ± 0.002 %ID/g
Biodistribution (%ID/g) Heart ([2]; 24 h p.i.): 0.009 ± 0.002 %ID/g
Biodistribution (%ID/g) Kidney ([2]; 24 h p.i.): 0.077 ± 0.009 %ID/g
Biodistribution (%ID/g) Large intestine ([2]; 24 h p.i.): 0.022 ± 0.008 %ID/g
Biodistribution (%ID/g) Liver ([2]; 24 h p.i.): 0.018 ± 0.002 %ID/g
Biodistribution (%ID/g) Lung ([2]; 24 h p.i.): 0.033 ± 0.004 %ID/g
Biodistribution (%ID/g) Muscle ([2]; 24 h p.i.): 0.001 ± 0.000 %ID/g
Biodistribution (%ID/g) Pancreas ([2]; 24 h p.i.): 0.003 ± 0.001 %ID/g
Biodistribution (%ID/g) Small intestine ([2]; 24 h p.i.): 0.007 ± 0.001 %ID/g
Biodistribution (%ID/g) Spleen ([2]; 24 h p.i.): 0.044 ± 0.005 %ID/g
Biodistribution (%ID/g) Stomach ([2]; 24 h p.i.): 0.005 ± 0.002 %ID/g
Biodistribution (%ID/g) Blood ([2]; 48 h p.i.): 0.004 ± 0.001 %ID/g
Biodistribution (%ID/g) Bone ([2]; 48 h p.i.): 0.023 ± 0.004 %ID/g
Biodistribution (%ID/g) Fat ([2]; 48 h p.i.): 0.002 ± 0.001 %ID/g
Biodistribution (%ID/g) Heart ([2]; 48 h p.i.): 0.004 ± 0.002 %ID/g
Biodistribution (%ID/g) Kidney ([2]; 48 h p.i.): 0.021 ± 0.003 %ID/g
Biodistribution (%ID/g) Large intestine ([2]; 48 h p.i.): 0.003 ± 0.001 %ID/g
Biodistribution (%ID/g) Liver ([2]; 48 h p.i.): 0.008 ± 0.001 %ID/g
Biodistribution (%ID/g) Lung ([2]; 48 h p.i.): 0.015 ± 0.002 %ID/g
Biodistribution (%ID/g) Muscle ([2]; 48 h p.i.): 0.001 ± 0.001 %ID/g
Biodistribution (%ID/g) Pancreas ([2]; 48 h p.i.): 0.001 ± 0.001 %ID/g
Biodistribution (%ID/g) Small intestine ([2]; 48 h p.i.): 0.002 ± 0.000 %ID/g
Biodistribution (%ID/g) Spleen ([2]; 48 h p.i.): 0.024 ± 0.005 %ID/g
Biodistribution (%ID/g) Stomach ([2]; 48 h p.i.): 0.001 ± 0.000 %ID/g
fold less radioactivity associated with liver tissue compared to [^89Zr]Zr-DFO ([2]; 72 h p.i.): 9 fold
fold less radioactivity in the bone tissue than [^89Zr]Zr-DFO ([2]; 72 h p.i.): 3 fold
fold less radioactivity retained in the kidney than [^89Zr]Zr-DFO ([2]; 72 h p.i.): 69 fold
Biodistribution (%ID/g) Blood ([2]; 72 h p.i.): 0.003 ± 0.001 %ID/g
Biodistribution (%ID/g) Bone ([2]; 72 h p.i.): 0.023 ± 0.003 %ID/g
Biodistribution (%ID/g) Fat ([2]; 72 h p.i.): 0.001 ± 0.001 %ID/g
Biodistribution (%ID/g) Heart ([2]; 72 h p.i.): 0.004 ± 0.001 %ID/g
Biodistribution (%ID/g) Kidney ([2]; 72 h p.i.): 0.010 ± 0.002 %ID/g
Biodistribution (%ID/g) Large intestine ([2]; 72 h p.i.): 0.003 ± 0.001 %ID/g
Biodistribution (%ID/g) Liver ([2]; 72 h p.i.): 0.007 ± 0.001 %ID/g
Biodistribution (%ID/g) Lung ([2]; 72 h p.i.): 0.013 ± 0.003 %ID/g
Biodistribution (%ID/g) Muscle ([2]; 72 h p.i.): 0.001 ± 0.001 %ID/g
Biodistribution (%ID/g) Pancreas ([2]; 72 h p.i.): 0.001 ± 0.001 %ID/g
Biodistribution (%ID/g) Small intestine ([2]; 72 h p.i.): 0.001 ± 0.000 %ID/g
Biodistribution (%ID/g) Spleen ([2]; 72 h p.i.): 0.026 ± 0.002 %ID/g
Biodistribution (%ID/g) Stomach ([2]; 72 h p.i.): 0.001 ± 0.000 %ID/g
